The values that follow come from ChEMBL document CHEMBL3886423, “Nitrogen-containing compounds and pharmaceutical compositions thereof for the treatment of atrial fibrillation” (2015).

The target in the test is Potassium voltage-gated channel subfamily A member 5 (Homo sapiens, UniProt P22460). Put plainly: Inhibition Assay: CHO-K1 cell lines stably expressing human Kv1.5 channels were prepared in the following manner.Full-length human Kv1.5 cDNA was cloned from a human heart cDNA library (produced by Stratagene). The obtained human Kv1.5 sequence corresponds to the sequence described in FASEB J. 5, 331-337 (1991).The obtained human Kv1.5 cDNA was inserted into a plasmid encoding a CMV promoter and a G418 resistance marker to produce a Kv1.5 expression vector. The human Kv1.5 expression vector was transfected into CHO-K1 cells by the lipofectamine method. After culturing the cells in an F-12 medium (produced by Invitrogen Corp.) containing 10% FBS (produced by Invitrogen Corp.) for 3 or 4 days, the medium was replaced with a FBS-containing F-12 medium that included 1,000 ug/ml of G418 (produced by Invitrogen Corp.), and single colonies were isolated. The amount of Kv1.5 channel expression in the single colonies was quantified at the mRNA level by RT-PCR and then quantified at the protein level. The class given is cell-based.
Chain of Potassium voltage-gated channel subfamily A member 5 (P22460 whole entry): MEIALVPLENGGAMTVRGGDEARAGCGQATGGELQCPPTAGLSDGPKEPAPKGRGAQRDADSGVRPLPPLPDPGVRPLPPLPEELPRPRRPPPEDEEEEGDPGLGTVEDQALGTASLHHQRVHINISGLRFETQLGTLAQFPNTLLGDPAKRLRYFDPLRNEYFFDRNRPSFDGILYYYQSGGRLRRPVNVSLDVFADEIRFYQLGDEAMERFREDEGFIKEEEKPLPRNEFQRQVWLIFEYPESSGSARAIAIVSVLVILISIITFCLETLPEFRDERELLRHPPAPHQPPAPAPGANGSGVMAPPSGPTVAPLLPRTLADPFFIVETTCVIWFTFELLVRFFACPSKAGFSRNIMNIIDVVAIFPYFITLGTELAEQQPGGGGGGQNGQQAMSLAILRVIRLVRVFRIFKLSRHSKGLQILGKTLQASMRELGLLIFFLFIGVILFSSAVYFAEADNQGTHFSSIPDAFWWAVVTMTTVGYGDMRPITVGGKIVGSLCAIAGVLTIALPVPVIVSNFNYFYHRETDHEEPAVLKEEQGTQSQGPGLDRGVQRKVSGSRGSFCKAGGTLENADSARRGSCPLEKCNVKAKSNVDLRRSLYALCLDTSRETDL

A word on the IC50: it is the concentration that gives 50% inhibition. The low end stands for inhibition by little substance, the high end for a need for much substance.

With `Cn1c(=O)ccc2cc(OCCCCCN(CCc3cccnc3)C(=O)c3cccnc3)ccc21`, the midpoint of inhibition, the IC50, lay at 1400 nM.
